In EP0095813A2, “Penetrating topical pharmaceutical compositions containing 9-(2-hydroxyethoxymethyl) guanine” (THE PROCTER & GAMBLE COMPANY, priority 1982, dated 1983):

Key:
[1] = Skin penetration study, Franz diffusion apparatus, transport across human epidermis in vitro; type: in vitro ADME; details: binary system with a cell-envelope disordering compound versus standard vehicle/solvent; heat-separated abdominal epidermis, about 31°C
From the text: The following data illustrate the effects of incorporating 9-(2-hydroxyethoxymethyl) guanine into a standard vehicle/sol- vent versus the same pharmaceutical active used in a binary system with a cell-envelope disordering compound.
The above data reflect relative transport of 9-(2-hydroxyethoxymethyl) guanine across human epidermis in vitro.
In the above skin penetration studies, human skin, (heat- separated abdominal epidermis, taken at autopsy), was placed in a standard Franz diffusion apparatus (Crown Glass Co., Somerville, N.J.) in a horizontal position between a lower, capped diffusion cell and an upper, open cell. A normal saline solution was added to the lower diffusion cell, abutting the subcutaneous side of the skin, and the test composition comprising a solution of active drug in the carrier at indicated formulation was added to the diffusion cell abutting the epidermal side of the skin.
This cell assembly was kept in a constant-temperature room at about 31°C. At appropriate intervals, each diffusion cell assembly was opened and the diffusate from the cell abutting the subcutaneous side of the skin was withdrawn. Drug active in the diffusate was measured using standard analytical techniques. Each trial was run on a separate sample of human skin.

[2] = cited from earlier work

In the case of Nc1nc2c(ncn2COCCO)c(=O)[nH]1 [9-(2-hydroxyethoxymethyl) guanine], the “Penetration (relative transport across human epidermis in vitro)” value [1] is given as “significantly enhanced”, the “solubility in lipophilic solvent systems” value ([2]; lipophilic solvent systems) is given as “almost totally insoluble” and the solubility in water ([2]; water) is given as “slightly soluble”.
